Data set [1] deals with Prostaglandin G/H synthase 1 (Homo sapiens, UniProt P23219).
The nature of data set [2]: Ulcerogenic activity in Albino mouse assessed as histopathological change in stomach by H and E staining based analysis. Format: toxicity. The following applies: in vivo.
For a further data set, the target named is Carbonic anhydrase 12 (Homo sapiens, UniProt O43570). Put plainly: Binding affinity to human CA12 assessed as inhibition constant by stopped flow kinetic assay.
The test system of data set [3] is Rattus norvegicus. Put plainly: Anti-inflammatory activity in carrageen-induced paw edema rat model assessed as inhibition of edema measured after 3 hrs relative to control. Format: functional.
For data set [4], the system named is Rattus norvegicus. In words: Anti-inflammatory activity in carrageen-induced paw edema rat model assessed as change in paw height measured after 1 hr (reference value: 0.68 +/- 0.04 %). Format: functional.
For the next data set, the target named is Carbonic anhydrase 2 (Homo sapiens, UniProt P00918). Put plainly: Binding affinity to human CA2 assessed as inhibition constant by stopped flow kinetic assay.
Data set [5] relates to Rattus norvegicus. In words: Anti-inflammatory activity in carrageen-induced paw edema rat model assessed as change in paw height measured after 2 hrs (reference value: 0.64 +/- 0.05 %). Format: functional.
Data set [6] concerns Rattus norvegicus. Put plainly: Anti-inflammatory activity in carrageen-induced paw edema rat model assessed as change in paw height measured immediately (reference value: 0.56 +/- 0.05 %). The format is functional.
Data set [7] is filed under the species Mus musculus. Put plainly: Analgesic activity in mouse assessed reduction in number of acetic acid-induced writhing measured for 20 mins (reference value: 40 +/- 2.9). The format is functional.
Data set [8] deals with Rattus norvegicus. In words: Anti-inflammatory activity in carrageen-induced paw edema rat model assessed as change in paw height measured after 3 hrs (reference value: 0.78 +/- 0.08 %). The format is functional.
For a further data set, the target named is Carbonic anhydrase 1 (Homo sapiens, UniProt P00915). In words: Binding affinity to human CA1 assessed as inhibition constant by stopped flow kinetic assay.
Chain of Carbonic anhydrase 1 (P00915 whole entry): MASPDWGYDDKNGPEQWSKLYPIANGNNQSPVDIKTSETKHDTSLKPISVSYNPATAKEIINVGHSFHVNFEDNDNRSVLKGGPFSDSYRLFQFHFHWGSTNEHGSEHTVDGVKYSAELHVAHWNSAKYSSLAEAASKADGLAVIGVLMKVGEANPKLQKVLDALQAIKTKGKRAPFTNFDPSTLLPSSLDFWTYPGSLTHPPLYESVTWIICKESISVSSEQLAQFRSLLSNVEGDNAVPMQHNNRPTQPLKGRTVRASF
In the next data set the target is Carbonic anhydrase 9 (Homo sapiens, UniProt Q16790). In words: Binding affinity to human CA9 assessed as inhibition constant by stopped flow kinetic assay.
For data set [9], the species on record is Mus musculus. In words: Analgesic activity in mouse assessed protection against acetic acid-induced writhing measured for 20 mins relative to control. Format: functional. (Writhing tests count abdominal constrictions after an irritant is injected.)
Data set [10] can be described thus: Ulcerogenic activity in Albino mouse assessed as inflammation in stomach by H and E staining based analysis. Format: toxicity. The following applies: in vivo.

Results on twelve compounds are retold here after ChEMBL document CHEMBL5385885, “4-(5-Amino-pyrazol-1-yl)benzenesulfonamide derivatives as novel multi-target anti-inflammatory agents endowed with inhibitory activity against COX-2, 5-LOX and carbonic anhydrase: Design, synthesis, and biological assessments” (Eur J Med Chem, 2023).

The structures appear in SMILES notation.

Chain of Prostaglandin G/H synthase 1 (P23219 whole entry): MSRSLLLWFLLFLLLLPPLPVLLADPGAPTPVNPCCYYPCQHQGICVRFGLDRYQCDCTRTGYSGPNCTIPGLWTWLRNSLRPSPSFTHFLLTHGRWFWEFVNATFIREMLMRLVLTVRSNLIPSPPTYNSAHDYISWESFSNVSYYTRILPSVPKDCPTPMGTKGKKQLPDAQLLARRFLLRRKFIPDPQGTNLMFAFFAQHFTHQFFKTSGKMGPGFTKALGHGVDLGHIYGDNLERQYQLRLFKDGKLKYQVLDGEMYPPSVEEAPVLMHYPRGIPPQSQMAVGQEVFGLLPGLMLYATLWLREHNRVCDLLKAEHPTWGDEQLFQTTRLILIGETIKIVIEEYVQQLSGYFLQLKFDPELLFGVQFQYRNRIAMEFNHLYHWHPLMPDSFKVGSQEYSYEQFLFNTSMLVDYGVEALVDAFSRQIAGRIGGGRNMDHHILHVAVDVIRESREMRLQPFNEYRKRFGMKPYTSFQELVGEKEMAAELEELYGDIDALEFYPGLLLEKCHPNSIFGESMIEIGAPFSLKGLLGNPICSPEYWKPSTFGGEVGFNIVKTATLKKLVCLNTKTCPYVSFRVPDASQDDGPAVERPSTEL
Chain of Carbonic anhydrase 12 (O43570 whole entry): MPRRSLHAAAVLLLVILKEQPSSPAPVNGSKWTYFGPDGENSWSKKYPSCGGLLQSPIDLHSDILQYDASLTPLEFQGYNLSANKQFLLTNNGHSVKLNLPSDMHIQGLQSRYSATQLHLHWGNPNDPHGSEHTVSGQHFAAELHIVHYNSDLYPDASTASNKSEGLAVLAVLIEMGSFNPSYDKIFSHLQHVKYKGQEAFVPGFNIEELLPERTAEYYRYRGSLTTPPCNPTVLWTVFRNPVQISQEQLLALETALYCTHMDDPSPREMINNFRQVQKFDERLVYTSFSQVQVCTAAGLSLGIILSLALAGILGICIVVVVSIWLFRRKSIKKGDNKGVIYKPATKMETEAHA

On to `Nc1c(C(=O)N/N=C/c2ccccc2[N+](=O)[O-])cnn1-c1ccc(S(N)(=O)=O)cc1`, for which, in [1], the IC50 (commonly the concentration at which inhibition is half-maximal) amounted to 4.8 µM.
Turning to `Nc1c(C(=O)N/N=C/c2cccc([N+](=O)[O-])c2)cnn1-c1ccc(S(N)(=O)=O)cc1`, inhibition in data set [1] was half-maximal at 5 µM (IC50).
With `Nc1c(C(=O)N/N=C/c2ccccc2)cnn1-c1ccc(S(N)(=O)=O)cc1`, half-maximal inhibition in data set [1] (IC50) required 10.4 µM. Further, the Activity entry in [2] is “Non-Toxic”.
In [1], `Nc1c(C(=O)N/N=C/c2ccc([N+](=O)[O-])cc2)cnn1-c1ccc(S(N)(=O)=O)cc1` registered an IC50 of 5 µM.
Turning to `Nc1c(C(=O)N/N=C/c2cccs2)cnn1-c1ccc(S(N)(=O)=O)cc1`, in data set [1], the IC50 came out at 9.5 µM.
In the case of `Nc1c(C(=O)N/N=C/c2ccccc2Cl)cnn1-c1ccc(S(N)(=O)=O)cc1`, in data set [1], the concentration for half-maximal inhibition (IC50) is 10.5 µM.
The compound `COc1ccc(/C=N/NC(=O)c2cnn(-c3ccc(S(N)(=O)=O)cc3)c2N)cc1` showed a concentration for half-maximal inhibition (IC50) in [1] of 6 µM.
In data set [1], `CN(C)c1ccc(/C=N/NC(=O)c2cnn(-c3ccc(S(N)(=O)=O)cc3)c2N)cc1` showed an IC50 of 7 µM.
As for `Nc1c(C(=O)N/N=C/c2ccc(O)cc2)cnn1-c1ccc(S(N)(=O)=O)cc1`, the Ki (as a rule, a dissociation constant, usually derived from enzyme kinetics or from competition with a known ligand) on Carbonic anhydrase 12 is 0.0058 µM; at Carbonic anhydrase 2, 0.0269 µM; on Carbonic anhydrase 1 it was 0.134 µM; at Carbonic anhydrase 9, 0.0489 µM. The “inhibition (INH)” value in the data set on Rattus norvegicus [3] is recorded as 31%. Also, the Activity was 0.52% in the data set on Rattus norvegicus [4]; 0.62% with Rattus norvegicus [5]; 0.48% in the data set with Rattus norvegicus [6]; 19 in the data set listed under Mus musculus [7]; 0.54% in the data set on Rattus norvegicus [8]; “Non-Toxic” in data set [2]. In the data set listed under Mus musculus [9], this compound had an Activity of 52.5%. The compound also showed an IC50 in data set [1] of 12.5 µM.
`Nc1c(C(=O)N/N=C/c2ccc(Cl)cc2)cnn1-c1ccc(S(N)(=O)=O)cc1` registered an IC50 in data set [1] of 8 µM.
Turning to `Cc1ccc(-c2cc(C(F)(F)F)nn2-c2ccc(S(N)(=O)=O)cc2)cc1` [CELECOXIB], in the data set on Rattus norvegicus [3], the “inhibition (INH)” value is listed as 38.5%. The Activity with Rattus norvegicus [4] is 0.44%; in the data set with Rattus norvegicus [5] it was 0.52%; in the data set on Rattus norvegicus [6], 0.5%; in the data set filed under Mus musculus [7], 16; with Rattus norvegicus [8], 0.48%; in data set [2] it was “Non-Toxic”. Besides, the Activity in the data set filed under Mus musculus [9] amounted to 60%.
Turning to `O=C(O)Cc1ccccc1Nc1c(Cl)cccc1Cl` [DICLOFENAC], in the data set with Rattus norvegicus [3], the “inhibition (INH)” value was 59%. Also, the Activity in the data set with Rattus norvegicus [4] was 0.28%; in the data set with Rattus norvegicus [5] it was 0.32%; in the data set on Rattus norvegicus [6], 0.52%; in the data set filed under Mus musculus [7], 12; in data set [10] it was “Toxic”; with Rattus norvegicus [8], 0.32%. In addition, the figures for the Activity result (in [2]; in the data set filed under Mus musculus [9]) were “Toxic” and 70%, respectively.
